# Assay results published in ChEMBL document CHEMBL3351783, “Structural insights into carbonic anhydrase IX isoform specificity of carbohydrate-based sulfamates” (J Med Chem, 2014).
# Molecular target: Carbonic anhydrase 1 (Homo sapiens, UniProt P00915)
# Test: Inhibition of human recombinant carbonic anhydrase 1 by stopped-flow CO2 hydration assay
# Sequence of Carbonic anhydrase 1 (P00915 whole entry): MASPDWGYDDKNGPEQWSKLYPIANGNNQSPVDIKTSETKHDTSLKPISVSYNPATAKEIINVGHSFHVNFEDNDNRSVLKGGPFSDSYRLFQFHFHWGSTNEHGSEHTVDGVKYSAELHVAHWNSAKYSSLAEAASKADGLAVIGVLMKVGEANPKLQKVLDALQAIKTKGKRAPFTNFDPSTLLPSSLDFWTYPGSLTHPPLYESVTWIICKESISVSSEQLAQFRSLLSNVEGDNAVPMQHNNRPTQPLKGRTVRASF
row,Compound,Ki [nM]
1,COC(=O)[C@H](CS(N)(=O)=O)NS(=O)(=O)[C@@H]1O[C@H](COC(C)=O)[C@@H](OC(C)=O)[C@H](OC(C)=O)[C@H]1OC(C)=O,> 20000
2,NS(=O)(=O)OC1CCN(S(=O)(=O)[C@@H]2O[C@H](CO)[C@@H](O)[C@H](O)[C@H]2O)CC1,> 20000

# Molecular target: Carbonic anhydrase 9 (Homo sapiens, UniProt Q16790)
# Test: Inhibition of human recombinant carbonic anhydrase 9 by stopped-flow CO2 hydration assay
row,Ki [nM],Compound
1,215,CC(=O)OC[C@H]1O[C@@H](S(=O)(=O)NCCCOS(N)(=O)=O)[C@H](OC(C)=O)[C@@H](OC(C)=O)[C@@H]1OC(C)=O
2,2,CC(=O)OC[C@H]1O[C@@H](S(=O)(=O)N2CC[C@@H](OS(N)(=O)=O)C2)[C@H](OC(C)=O)[C@@H](OC(C)=O)[C@@H]1OC(C)=O
3,2,COC(=O)[C@@H]1C[C@@H](OS(N)(=O)=O)CN1S(=O)(=O)[C@@H]1O[C@H](COC(C)=O)[C@@H](OC(C)=O)[C@H](OC(C)=O)[C@H]1OC(C)=O
4,2,NS(=O)(=O)OCCCNS(=O)(=O)[C@@H]1O[C@H](CO)[C@@H](O)[C@H](O)[C@H]1O
5,2,NS(=O)(=O)O[C@@H]1CCN(S(=O)(=O)[C@@H]2O[C@H](CO)[C@@H](O)[C@H](O)[C@H]2O)C1
